Assay: gradient 5% acetonitrile 3 min, to 50% in 2 min, to 85% in 15 min, held 3 min, 100 µL/min
Conditions: column: Zorbax Extend-C18 2.1 x 50 mm; eluents: water / acetonitrile, 0.1% formic acid
Summary of the method: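 Standards, all pure, were combined into mixtures of ~100 molecules and run at 100 μL/min on a Zorbax Extend-C18 column (2.1 × 50 mm, 1.8 μm) with water and acetonitrile, each containing 0.1% formic acid. A coupled quadrupole time-of-flight mass spectrometer operated in positive and negative ionization mode. Retention time values come from computationally picked adduct peaks, each inspected manually.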

| RP-LC retention time | Structure (SMILES) |
| --- | --- |
| 730 s | O=C(C1=CN(c2cccc(F)c2)c2ccccc2S1(=O)=O)N1CCOCC1 |
| 864 s | Cn1c(=O)c(N2CCN(C(=O)c3cccc(F)c3)CC2)nc2ccccc21 |
| 927 s | CCCC(C)C(=O)NC1CCN(C2=NS(=O)(=O)C(c3ccc(CC)cc3)=C2C)CC1 (stereo unspecified) |
| 604 s | CCN1CCCC1CN(CC(=O)N1CCNCC1)S(=O)(=O)c1ccc(C(C)C)cc1 (stereo unspecified) |
| 1090 s | C[C@@H](Oc1ccc(S(C)(=O)=O)cc1C(=O)N1CCN(c2ncc(C(F)(F)F)cc2F)CC1)C(F)(F)F |
| 886 s | CCCCC(=O)N1CCCN(C2=NS(=O)(=O)C(c3ccc(C)c(C)c3)=C2C)CC1 |
| 662 s | O=C(Cn1nc2n(c1=O)CCCC2)Nc1cccc(Cl)c1 |
| 884 s | O=C(CCn1cnc2cc(-c3noc(COc4ccc(Cl)cc4)n3)ccc21)N1CCCCCC1 |
| 638 s | COc1ccc(C(=O)N2CCc3c(c(C(=O)N4CCCC(C(=O)NC5CC5)C4)nn3C)C2)c(OC)c1 (stereo unspecified) |
| 1040 s | Cc1cc(NC(=O)CCc2nc(CSc3nnc(-c4ccccc4)o3)no2)ccc1Br |
| 1010 s | c1ccc(-c2nc3ccccc3s2)nc1 |
| 941 s | COc1ccc(S(=O)(=O)N2CCCC(C(=O)Nc3ccc4c(c3)OCO4)C2)cc1Cl (stereo unspecified) |
| 623 s | CCNc1nc(NCC)n2c(SCC(=O)Nc3ccccc3[N+](=O)[O-])nnc2n1 |
| 826 s | COCc1cc2nn(CC(=O)Nc3ccc(F)cc3C)c(=O)n2c(-c2ccccc2)n1 |
| 879 s | CCn1nccc1C(=O)Nc1cc(-c2cc3c(OC)cccc3n2CC)[nH]n1 |
| 1010 s | Cc1cc2nc(C(=O)Nc3ccc(F)c(C)c3)cc(C)n2n1 |
| 633 s | FC(F)(F)c1ccccc1-n1ccnc1 |
| 733 s | O=C1NCCCCCCN(C(=O)c2ccsc2)[C@H]2CCC[C@@H]12 |
| 804 s | O=C(NC1CC1)c1ccc2c(c1)CCCN2S(=O)(=O)c1ccccc1 |
| 702 s | CCc1c(C(=O)O)nnn1-c1ccc2c(c1)OCCO2 |
| 596 s | O=C(Nc1c(-c2ccccc2)nc2ccccn12)c1cccc([N+](=O)[O-])c1 |

| RP-LC retention time | Structure (SMILES) |
| --- | --- |
| 957 s | COc1cccc(-c2noc(Cn3c(=O)n(-c4cccc(F)c4)c(=O)c4sccc43)n2)c1 |
| 745 s | Cc1cccc(C)c1NC(=O)CN1C(=O)NC2(CCCCC2)C1=O |
| 996 s | Cc1c(-c2noc(-c3ccc4cc[nH]c4c3)n2)nnn1Cc1cccc(F)c1 |
| 595 s | O=C(CCCc1nnc2c(=O)n(-c3ccc(Cl)cc3)ccn12)N1CCN(c2ccccn2)CC1 |
| 638 s | CC(=O)Oc1cc2c(C(=O)NCc3ccccn3)c(C)oc2c2ccccc12 |
| 902 s | COc1cc(C2OC(c3ccc(F)cc3)=NN2C(C)=O)cc(OC)c1OC (stereo unspecified) |
| 759 s | CCN1C(=O)COc2ccc(-c3nc(NC(C)=O)sc3C)cc21 |
| 950 s | CCOC(=O)C(=O)Nc1ccc(SCc2nnc(-c3ccccc3C)o2)cc1 |
| 973 s | O=C(CCc1nc(CSc2nnc(-c3ccccc3)o2)no1)Nc1ccc(F)c(Cl)c1 |
| 846 s | Cc1cccc(N2CCN(c3ccc4nnc(CCc5nc(-c6ccncc6)no5)n4n3)CC2)c1 |
| 573 s | Cc1oc2ncn(CCC(=O)N3CCN(c4ccccn4)CC3)c(=O)c2c1C |
| 1030 s | CCc1nc2cc(-c3noc(Cc4ccsc4)n3)ccc2o1 |
| 824 s | CCn1ccc2c(cc(C(=O)Nc3ccc(C)c(C)c3)n2C)c1=O |
| 950 s | Cc1csc(-n2nc(C)c(CC(=O)Nc3ccc(F)cc3)c2C)n1 |
| 810 s | COc1cc(OC)c(NC(=O)C2CCN(C(=O)C3Sc4ccccc4NC3=O)CC2)cc1Cl (stereo unspecified) |
| 844 s | O=S(=O)(c1ccc(F)cc1F)N1CCN(Cc2cccc(F)c2)C2(CCOCC2)C1 |
| 787 s | CCN(CC)C(=O)c1ccc2c(c1)N(CC(=O)N(C)Cc1ccccc1)C(=O)CS2 |
| 1100 s | O=C1CC(c2noc(-c3ccc(F)cc3)n2)CN1c1ccc(F)c(Cl)c1 (stereo unspecified) |
| 664 s | O=C(Nc1ncnc2sccc12)c1ccc([N+](=O)[O-])o1 |
| 964 s | CCN(Cc1ccccc1)C(=O)CSc1cc(N2CCN(c3ccc(OC)cc3)CC2)ncn1 |
| 1150 s | Cc1cccc(-c2noc(Cc3nnc(-c4cccc(Br)c4)o3)n2)c1 |

| RP-LC retention time | Structure (SMILES) |
| --- | --- |
| 676 s | CCn1ccc2cc(S(=O)(=O)N3CCC(C(=O)NCCCN4CCCC(C)C4)CC3)ccc21 (stereo unspecified) |
| 1240 s | CC(NS(=O)(=O)c1cc(-c2nc(C(C)(C)C)cs2)cs1)c1ccccc1 (stereo unspecified) |
| 941 s | CC(C)c1noc(-c2cc(=O)n(CC(=O)Nc3ccc4c(c3)OCCO4)c3ccccc23)n1 |
| 849 s | COc1cc(OC)c(NC(=O)Cn2ccn3nc(-c4ccccc4)c(CO)c3c2=O)cc1Cl |
| 778 s | Cc1nc2cc(N3CC(C(=O)NCc4ccc(OC(C)C)cc4)CC3=O)ccc2o1 (stereo unspecified) |
| 914 s | CC(C)Cc1ccc(S(=O)(=O)N(C)C2CCc3nn(CC4CC4)c(=O)n3CC2)cc1 (stereo unspecified) |
| 915 s | CCn1cc(C(=O)NCc2ccc(F)cc2)c(S(=O)(=O)N2CCSCC2)n1 |
| 867 s | CCOC(=O)c1c(NCc2ccccc2Cl)c2cccc(Cl)c2[nH]c1=O |
| 697 s | Cc1ccc(-c2noc(C3CC3)n2)cc1S(=O)(=O)N1CCC(C(=O)N2CCOCC2)CC1 |
| 1080 s | CCOc1ccccc1-c1noc(Cn2c(=O)n(Cc3ccc(OC)cc3)c(=O)c3sccc32)n1 |
| 1070 s | O=C(Nc1ccc(F)c(Cl)c1)N1CCCC1c1nc(-c2ccc(F)cc2F)no1 (stereo unspecified) |
| 611 s | Cn1c(=O)c(N2CCC(C(=O)NCCN3CCCCCC3)CC2)nc2cccnc21 |
| 682 s | COC(=O)c1cnc(N2CCN(Cc3ccccc3)CC2)c2ccccc12 |
| 554 s | CCN1CCN(CCCNC(=O)c2ccc3c(c2)N(C)C(=O)C2CCCCN32)CC1 (stereo unspecified) |
| 975 s | Cc1ccc(C2=NC3(CCN(C(=O)c4ccc(C(C)(C)C)cc4)CC3)ON2)cc1 |
| 768 s | CCN(CC)C(=O)c1ccc2c(c1)N(CC(=O)NC1CCCCCC1)C(=O)CO2 |
| 738 s | O=C(Cn1cccc1-c1nc(-c2ccc3c(c2)OCO3)no1)Nc1ccc(Cl)cc1F |
| 1170 s | COC(=O)c1cc(C)nc2c1c(=O)n(Cc1cccc(C)c1)c(=O)n2Cc1ccco1 |
| 888 s | Cc1ccc(S(=O)(=O)N2CC(c3noc(C)n3)C3(CCOCC3)C2)c(C)c1 (stereo unspecified) |
| 560 s | CCCC(=O)Nc1ccc2nc(N3CCN(CC)CC3)cc(C)c2c1 |
| 897 s | Cc1nnc(SCC(=O)N2c3ccccc3CCc3ccccc32)s1 |

| RP-LC retention time | Structure (SMILES) |
| --- | --- |
| 716 s | Cc1c(-c2cccc(NC(=O)c3cc(Br)ccc3Cl)c2)nc2ncccn12 |
| 812 s | COc1ccc(-c2ccc(=O)n(CCCNC(=O)c3ccc(S(N)(=O)=O)cc3)n2)cc1 |
| 758 s | CC1=C(c2ccc(C)cc2)S(=O)(=O)N=C1N1CCCN(C(=O)c2ccccn2)CC1 |
| 580 s | Cc1nn(CCCC(=O)N2CCN(c3ccccn3)CC2)c(=O)c2noc(C)c12 |
| 670 s | O=C(Cn1cnc2nc(N3CCC(C(=O)NC4CC4)CC3)sc2c1=O)Nc1ccc2c(c1)CCC2 |
| 902 s | COc1cccc(CNC(=O)Cn2c(=O)cc(-c3nc(C4CC4)no3)c3ccccc32)c1 |
| 1160 s | O=S(=O)(c1cccc(-c2nnc(-c3ccc(Cl)cc3)o2)c1)N1CCCCC1 |
| 1140 s | Cc1ccc(F)cc1NC(=O)c1cc(C2CC2)n2nccc2n1 |
| 821 s | CCOC(=O)c1ccccc1NC(=O)Cn1nc2n(c1=O)CCCCC2 |
| 577 s | O=C1NCCCCCN(C(=O)Nc2ccccc2)[C@H]2CCCC[C@@H]12 |
| 1090 s | CCOc1ccc(-n2nc(-c3nc(-c4ccncc4)no3)c3ccccc3c2=O)cc1 |
| 1040 s | COC(=O)C(CCSC)NC(=O)c1cc2c(n(-c3ccc(Cl)cc3)c1=O)CC(C)(C)CC2=O (stereo unspecified) |
| 1240 s | CCCN1C(=O)COc2ccc(-c3noc(-c4cc(OC)cc(OC)c4)n3)cc21 |
| 620 s | Cn1c(SCC(=O)c2ccc(F)cc2)nnc1-c1ccncc1 |
| 855 s | CC1CCN(C(=O)C2CC(=O)N(CCc3c[nH]c4ccc(Cl)cc34)C2)CC1 (stereo unspecified) |
| 728 s | O=C(Nc1ccccc1)c1csc(-c2ccc(N3CCCC3)nc2)n1 |
| 592 s | COc1ccc(OC)c(-c2cc(C(=O)NCC#CCN3CCc4ccccc4C3)[nH]n2)c1 |
| 981 s | CCC(C)NC(=O)c1cc(-c2ccc(F)cc2)cn1C (stereo unspecified) |
| 715 s | CCn1ccc2c(cc(C(=O)Nc3cc(OC)c(OC)c(OC)c3)n2C)c1=O |
| 834 s | CCn1c(=O)n(Cc2ccccc2C(F)(F)F)c2cncnc21 |

| Structure (SMILES) | RP-LC retention time |
| --- | --- |
| CC(NC(=O)c1c(O)c2sccc2n(Cc2ccccc2)c1=O)c1ccccc1 (stereo unspecified) | 1350 s |
| CN1Cc2ccccc2-n2ccnc2C12CCN(C(=O)NC1CCCCC1)CC2 | 611 s |
| O=C(C1CC1)N1[C@H]2CC[C@@H]1c1cnc(-c3ccc(F)cc3)nc1C2 | 870 s |

Source: the METLIN SMRT retention time set (Domingo-Almenara et al. 2019)
